The source made the active and inactive calls. The calls are words filed in the database; no cut-off is given here.
Tests used:
J774.A1 [1] = experiment: Inhibition of LPS-induced NO release in mouse J774.A1 cells at 5 uM when treated with compound and LPS simultaneously measured after 24 hrs by Griess reagent based assay relative to control; format: functional; design: scale not given: the % may be the effect or the level left
J774.A1 [2] = experiment: Cytotoxicity against mouse J774.A1 cells assessed as antiproliferative activity at 200 uM incubated for 24 hrs by MTT assay relative to control; format: cell-based; conditions: j774.a1, 24 h
J774.A1 [3] = experiment: Cytotoxicity against mouse J774.A1 cells assessed as antiproliferative activity at 12.5 to 50 uM incubated for 24 hrs by MTT assay relative to control; format: cell-based; conditions: j774.a1, 24 h, dose 12.5-50 µM
J774.A1 [4] = experiment: Inhibition of LPS-induced NO release in mouse J774.A1 cells at 12.5 to 50 uM when treated with compound and LPS simultaneously measured after 24 hrs by Griess reagent based assay relative to control; format: functional, cell-based; conditions: dose 12.5-50 µM
J774.A1 [5] = experiment: Inhibition of iNOS expression in LPS-stimulated mouse J774.A1 cells at 12.5 to 50 uM measured after […] by flow cytometry analysis relative to control; format: functional, cell-based; conditions: dose 12.5-50 µM

Row | Compound | Activity (J774.A1 [1]) [%] | Activity (J774.A1 [2]) [%] | Activity (J774.A1 [3]) | Activity (J774.A1 [4]) | Activity (J774.A1 [5])
1 | COC(=O)[C@@H](N)CCCNC(=N)N[N+](=O)[O-].Cl | 57 | – | – | – | –
2 | Sc1ncnc2nc[nH]c12 [MERCAPTOPURINE ANHYDROUS] | – | 27.86 | – | – | –
3 | CC1(C)CCC[C@@]23CO[C@@H](C[C@@H]12)c1cc(O)c(O)cc13 | – | – | Toxic | – | –
4 | CC1=C[C@@]2(O)CC[C@H]3C(C)(C)CCC[C@]3(CO)C2=CC1=O | – | – | Toxic | – | –
5 | Cc1cc2c(cc1O)C[C@]1(O)CCCC(C)(C)[C@@H]1CC2 | – | – | Non-Toxic | Active | Active
6 | Cc1cc2c(cc1O)[C@@]13CCC(=O)C(C)(C)[C@@H]1C[C@@H]2OC3 | – | – | Non-Toxic | Active | Active
7 | Cc1cc2c(cc1O)[C@@]13CCCC(C)(C)[C@@H]1[C@H](OC3)[C@@H]2O | – | – | Toxic | – | –
8 | CC(C)c1cc2ccc3c(c2c(O)c1O)C=CC(=O)C3(C)C | – | – | Non-Toxic | Active | Active
9 | CC(CO)C1=C(O)C(=O)c2c(ccc3c2[C@H](O)CCC3(C)C)C1=O (stereo not given in full) | – | – | Non-Toxic | Active | Active
10 | CC1=C[C@]2(O)CC[C@H]3C(C)(C)CCC[C@@]3(O)C2=CC1=O | – | – | Non-Toxic | Active | Active
